Test results taken from publication PMC10269561, “Absence of Clinically Meaningful Drug-Drug Interactions with Rezafungin: Outcome of Investigations” (Microbiology Spectrum, 2023).
Read-outs that look alike come from different tables or passages of the source.

Conditions: for AUC0–t, geometric LSM value, + rezafungin / AUC0–∞, geometric LSM value, + rezafungin / Cmax, geometric LSM value, + rezafungin / AUC0–t, geometric LSM value, alone / AUC0–∞, geometric LSM value, alone / Cmax, geometric LSM value, alone: Study 1, healthy subjects, plasma, LC-MS/MS, NCA; for Observation, Cmax (change with rezafungin relative to drug alone) / Observation, AUC (change with rezafungin relative to drug alone): class symbol; for AUC0–t, geometric mean ratio (drug + rezafungin / drug alone) / AUC0–∞, geometric mean ratio (drug + rezafungin / drug alone) / Cmax, geometric mean ratio (drug + rezafungin / drug alone): geometric LSM ratio x 100, ANOVA; for Change in exposure of the oral probe drug on coadministration of i.v. rezafungin vs dosing alone: 90% CIs of GMRs of Cmax, AUC0–t, AUC0–∞ within 80 to […]; for Observation, AUC (change with rezafungin relative to drug alone): AUC0–t and AUC0–∞ unless otherwise noted
Description: Both were phase 1, single-center, open-label, crossover inpatient studies that were conducted in the United States in healthy adults (study 1, aged 26 to 55 years; study 2, aged 21 to 59 years). The studies were compliant with the International Council for Harmonisation of Technical Requirements for Pharmaceuticals for Human Use E6 guideline for good clinical practice ([54]) and the Declaration of Helsinki. The study protocols were approved by the institutional review board associated with the study site, and all subjects provided written informed consent.
After screening, subjects were admitted to the clinical research unit (CRU) prior to the first dose of rezafungin (from day −22) and were discharged from the CRU on day 22. Nine oral substrate drugs were administered as part of a cocktail containing two or more drugs once before and once after receiving rezafungin on a schedule designed to allow the washout of the drugs in the cocktail between doses and limit interactions with other drugs (Fig. 4A). […] A loading dose of rezafungin for injection (600 mg) was administered over 1 h on day 1, followed by two once-weekly 400-mg doses over 1 h on days 10 and 15. Due to a short delay in the availability of the investigation study drug, the second once-weekly dose of rezafungin and the second set of oral substrate drugs were administered on day 10 instead of day 8, although the time between doses remained sufficient for all originally planned PK samplings through 96 h postdose and for the adequate washout of the substrate drugs. The total duration of treatment was up to 89 days, including 45 days of screening and 44 days of treatment in the CRU.
In study 1, predose PK blood samples were collected on each dosing day ≤60 min prior to the administration of the substrate drugs with or without rezafungin. Multiple blood samples were collected relative to each dose, with collection times ranging from 15 min to 168 h postdose, depending on the PK profile of each probe substrate drug (Table S5). For study 2, multiple blood samples were collected, and the timing of collection varied according to the PK profile of each coadministered drug from predose to 96 h postdose (Table S6). PK blood samples were collected for rezafungin at sample times ranging from predose to 168 h postdose.
For both studies, validated liquid chromatography-tandem mass spectrometry (LC-MS/MS) methods were used for PK assessments to analyze the concentrations of rezafungin and coadministered drugs. All plasma concentrations and actual blood sampling times were subjected to noncompartmental PK analysis. PK parameter calculations were performed using noncompartmental analysis (NCA) (Phoenix WinNonlin version 8.0 or higher). The PK parameters analyzed included Cmax; the time to reach the maximum observed plasma concentration (Tmax); AUC0–t (using the log-linear trapezoidal rule, where t was the last time point with a measurable concentration); AUC0–∞ (calculated as AUC0–t + Clast/λz); the AUC from 0 to 168 h (AUC0–168); the percentage of AUC0–∞ extrapolated (AUC%Extrap); the terminal elimination rate constant, determined by linear regression of the terminal linear segment of the log concentration-versus-time curve (λz); and the elimination half-life (t1/2), calculated as ln(2)/λz.
The primary analysis of the drug interaction effect on substrate drugs following rezafungin administration was assessed by the ratio of the geometric least-squares (LS) mean of each substrate drug administered with rezafungin to that without rezafungin. […] PK parameters were statistically analyzed using an analysis of variance (ANOVA) model. […] However, noncompliance with these no-effect boundaries was not considered evidence of a significant DDI. Statistical analyses were performed using SAS (version 9.4) and the mixed procedure. Adverse events were descriptively summarized.

[1] = oral repaglinide 1 mg with i.v. rezafungin 600 mg (day 1)
[2] = oral repaglinide 1 mg, metformin 500 mg, pitavastatin 2 mg, caffeine 100 mg, efavirenz 50 mg, midazolam 2 mg or digoxin 0.25 mg without rezafungin
[3] = Study 1, from geometric mean ratio
[4] = Study 1, rezafungin 600 mg i.v.
[5] = oral rosuvastatin 5 mg with i.v. rezafungin 400 mg (day 10)
[6] = oral tacrolimus 5 mg or rosuvastatin 5 mg without rezafungin
[7] = Study 1, AUC0–t and AUC0–∞, from geometric mean ratio
[8] = Study 1, rezafungin 400 mg i.v. (day 10 or 15)
[9] = oral metformin 500 mg, pitavastatin 2 mg (day 10) or caffeine 100 mg, efavirenz 50 mg, midazolam 2 mg, digoxin 0.25 mg (day 15) with i.v. rezafungin 400 mg
[10] = oral tacrolimus 5 mg with i.v. rezafungin 600 mg (day 1)

CCOc1cc(CC(=O)N[C@@H](CC(C)C)c2ccccc2N2CCCCC2)ccc1C(=O)O [Repaglinide]
AUC0–t, geometric LSM value, + rezafungin [1]: 23.47 ng·h/mL
AUC0–∞, geometric LSM value, + rezafungin [1]: 25.16 ng·h/mL
Cmax, geometric LSM value, + rezafungin [1]: 12.13 ng/mL
AUC0–t, geometric LSM value, alone [2]: 20.25 ng·h/mL
AUC0–∞, geometric LSM value, alone [2]: 21.74 ng·h/mL
Cmax, geometric LSM value, alone [2]: 11.86 ng/mL
Observation, Cmax (change with rezafungin relative to drug alone) (Study 1): ↔ (no change (the ratio of the PK parameter value varied by up to ~10%, and the 90% CI was within 80 to 125%))
Magnitude of increase in AUC0–∞ with rezafungin vs drug alone [3]: ~16%
AUC0–t, geometric mean ratio (drug + rezafungin / drug alone) [4]: 115.87%
AUC0–∞, geometric mean ratio (drug + rezafungin / drug alone) [4]: 115.75%
Cmax, geometric mean ratio (drug + rezafungin / drug alone) [4]: 102.26%

CC(C)c1nc(N(C)S(C)(=O)=O)nc(-c2ccc(F)cc2)c1/C=C/[C@@H](O)C[C@@H](O)CC(=O)O [Rosuvastatin]
AUC0–t, geometric LSM value, + rezafungin [5]: 31,027.38 pg · h/mL
AUC0–∞, geometric LSM value, + rezafungin [5]: 32,386.11 pg · h/mL
Cmax, geometric LSM value, + rezafungin [5]: 3,683.66 pg/mL
AUC0–t, geometric LSM value, alone [6]: 26,949.43 pg · h/mL
AUC0–∞, geometric LSM value, alone [6]: 28,521.34 pg · h/mL
Cmax, geometric LSM value, alone [6]: 3,294.35 pg/mL
Magnitude of increase in AUC with rezafungin vs drug alone [7]: ~15%
Magnitude of increase in AUC0–∞ with rezafungin vs drug alone [3]: approximately 14%
Magnitude of increase in Cmax with rezafungin vs drug alone [3]: ~12%
AUC0–t, geometric mean ratio (drug + rezafungin / drug alone) [8]: 115.13%
AUC0–∞, geometric mean ratio (drug + rezafungin / drug alone) [8]: 113.55%
Cmax, geometric mean ratio (drug + rezafungin / drug alone) [8]: 111.82%

O=C1Nc2ccc(Cl)cc2[C@@](C#CC2CC2)(C(F)(F)F)O1 [Efavirenz]
AUC0–t, geometric LSM value, + rezafungin [9]: 7,698.46 ng · h/mL
AUC0–∞, geometric LSM value, + rezafungin [9]: 16,156.14 ng · h/mL
Cmax, geometric LSM value, + rezafungin [9]: 300.17 ng/mL
AUC0–t, geometric LSM value, alone [2]: 7,557.26 ng · h/mL
AUC0–∞, geometric LSM value, alone [2]: 14,368.15 ng · h/mL
Cmax, geometric LSM value, alone [2]: 299.30 ng/mL
Change in exposure of the oral probe drug on coadministration of i.v. rezafungin vs dosing alone (Study 1): did not result in statistically significant changes
Observation, Cmax (change with rezafungin relative to drug alone) (Study 1): ↔ (no change (the ratio of the PK parameter value varied by up to ~10%, and the 90% CI was within 80 to 125%))
Observation, AUC (change with rezafungin relative to drug alone) (Study 1): ↔ (no change (the ratio of the PK parameter value varied by up to ~10%, and the 90% CI was within 80 to 125%))
AUC0–t, geometric mean ratio (drug + rezafungin / drug alone) [8]: 101.87%
AUC0–∞, geometric mean ratio (drug + rezafungin / drug alone) [8]: 112.44%
Cmax, geometric mean ratio (drug + rezafungin / drug alone) [8]: 100.29%

O=C(O)C[C@H](O)C[C@H](O)/C=C/c1c(C2CC2)nc2ccccc2c1-c1ccc(F)cc1 [Pitavastatin]
AUC0–t, geometric LSM value, + rezafungin [9]: 81.54 ng·h/mL
AUC0–∞, geometric LSM value, + rezafungin [9]: 90.87 ng·h/mL
Cmax, geometric LSM value, + rezafungin [9]: 35.72 ng/mL
AUC0–t, geometric LSM value, alone [2]: 77.44 ng·h/mL
AUC0–∞, geometric LSM value, alone [2]: 85.78 ng·h/mL
Cmax, geometric LSM value, alone [2]: 36.23 ng/mL
Change in exposure of the oral probe drug on coadministration of i.v. rezafungin vs dosing alone (Study 1): did not result in statistically significant changes
Observation, Cmax (change with rezafungin relative to drug alone) (Study 1): ↔ (no change (the ratio of the PK parameter value varied by up to ~10%, and the 90% CI was within 80 to 125%))
Observation, AUC (change with rezafungin relative to drug alone) (Study 1): ↔ (no change (the ratio of the PK parameter value varied by up to ~10%, and the 90% CI was within 80 to 125%))
AUC0–t, geometric mean ratio (drug + rezafungin / drug alone) [8]: 105.30%
AUC0–∞, geometric mean ratio (drug + rezafungin / drug alone) [8]: 105.93%
Cmax, geometric mean ratio (drug + rezafungin / drug alone) [8]: 98.59%

CN(C)C(=N)N=C(N)N [Metformin]
AUC0–t, geometric LSM value, + rezafungin [9]: 7,257.55 ng · h/mL
AUC0–∞, geometric LSM value, + rezafungin [9]: 7,373.31 ng · h/mL
Cmax, geometric LSM value, + rezafungin [9]: 1,115.98 ng/mL
AUC0–t, geometric LSM value, alone [2]: 7,333.63 ng · h/mL
AUC0–∞, geometric LSM value, alone [2]: 7,446.67 ng · h/mL
Cmax, geometric LSM value, alone [2]: 1,074.27 ng/mL
Change in exposure of the oral probe drug on coadministration of i.v. rezafungin vs dosing alone (Study 1): did not result in statistically significant changes
Observation, Cmax (change with rezafungin relative to drug alone) (Study 1): ↔ (no change (the ratio of the PK parameter value varied by up to ~10%, and the 90% CI was within 80 to 125%))
Observation, AUC (change with rezafungin relative to drug alone) (Study 1): ↔ (no change (the ratio of the PK parameter value varied by up to ~10%, and the 90% CI was within 80 to 125%))
AUC0–t, geometric mean ratio (drug + rezafungin / drug alone) [8]: 98.96%
AUC0–∞, geometric mean ratio (drug + rezafungin / drug alone) [8]: 99.02%
Cmax, geometric mean ratio (drug + rezafungin / drug alone) [8]: 103.88%

C=CC[C@@H]1/C=C(\C)C[C@H](C)C[C@H](OC)[C@H]2O[C@@](O)(C(=O)C(=O)N3CCCC[C@H]3C(=O)O[C@H](/C(C)=C/[C@@H]3CC[C@@H](O)[C@H](OC)C3)[C@H](C)[C@@H](O)CC1=O)[C@H](C)C[C@@H]2OC [Tacrolimus]
AUC0–t, geometric LSM value, alone [6]: 309,698.20 pg · h/mL
AUC0–∞, geometric LSM value, alone [6]: 328,990.49 pg · h/mL
Cmax, geometric LSM value, alone [6]: 30,489.62 pg/mL
AUC0–t, geometric LSM value, + rezafungin [10]: 266,002.13 pg · h/mL
AUC0–∞, geometric LSM value, + rezafungin [10]: 283,328.47 pg · h/mL
Cmax, geometric LSM value, + rezafungin [10]: 28,909.40 pg/mL
Magnitude of decrease in AUC with rezafungin vs drug alone [7]: ~14%
Observation, Cmax (change with rezafungin relative to drug alone) (Study 1): ↔ (no change (the ratio of the PK parameter value varied by up to ~10%, and the 90% CI was within 80 to 125%))
AUC0–t, geometric mean ratio (drug + rezafungin / drug alone) [4]: 85.89%
AUC0–∞, geometric mean ratio (drug + rezafungin / drug alone) [4]: 86.12%
Cmax, geometric mean ratio (drug + rezafungin / drug alone) [4]: 94.82%
